The results in this text go back to patent US10221178B2, “Purine inhibitors of human phosphatidylinositol 3-kinase delta” (MERCK SHARP & DOHME CORP., priority 2015, dated 2019).

For one assay, the target named is PI3Kdelta (Homo sapiens (Human), UniProt O00329). Kind of assay: HTRF PI3K biochemical assay, delta isoform. As to conditions: 0.3 nM enzyme, 100 uM ATP, 5 uM PIP2, form screened: Neutral. The text has this:
(§1) HTRF PI3K Biochemical Assay to Measure Intrinsic Potency of Compound Inhibitors
(§2) The PI3-Kinase biochemical assays were developed to measure the intrinsic potency and compound dependent inhibition of the alpha, beta, delta, and gamma PI3K isoform enzymes.
(§3) This assay was developed and further optimized from a kit produced by Upstate (Millipore catalog #33-047) and has been configured for HTS (high throughput screening) and SAR screening. Briefly, this procedure exploits the exquisite specificity and high affinity binding of enzyme reaction substrate phosphatidyl(3,4,5)triphosphate (PIP3) to the GRP1 pleckstrin homology (PH) domain to generate the signal. In the absence of PIP3, an HTRF (Homogeneous Time-Resolved Fluorescence energy transfer) complex is formed consisting of europium (Eu)-labeled anti-GST, GSTtagged GRP1-PH domain, biotin-PIP3 and streptavidin conjugated APC. The native PIP3 produced by PI3-Kinase activity disrupts in a competitive manner the biotin-PIP3 from the PH domain, resulting in the loss of energy transfer (HTRF complex) and a decrease in the signal. The format of this assay is the same for all 4 isoforms of PI3K; the differences lie in the concentration of enzyme used to achieve robust assay window. The alpha, beta, and delta assays are run at 0.5, 1, and 0.3 nM enzymes and the gamma assay is run at 5 nM enzyme. The ATP concentration is 100 uM in the alpha, beta, and delta assays and 50 uM ATP in the gamma assay. All reactions are run at 5 uM PIP2.
(§4) Compounds are serially diluted (3-fold in 100% DMSO) across a 384-well polypropylene source plated from column 3 to column 12 and column 13 to column 22, to yield 10 concentration dose response for each test compound. Columns 1, 2, 23 and 24 contain either only DMSO or pharmacological known control inhibitor. Once titrations are made, 2.5 nL of the compounds on 384 well plates are reformatted and transferred by acoustic dispense in quadruplicates to a 1536 assay plate (Greiner) to assay across all four PI3K isoform enzymes.
(§5) The PI3-Kinase biochemical assay was optimized using the HTRF kit provided by Upstate (Millipore). The assay kit contains six reagents: 1) 4× Reaction Buffer; 2) native PIP2 (substrate); 3) Stop (EDTA); 4) Detection Mix A (Streptavidin-APC); 5) Detection Mix B (Eu-labeled Anti-GST plus GST-tagged PH-domain); 6) Detection Mix C. In addition, the following items were obtained or purchased; PI3Kinase (alpha 14-602, beta 14-603, gamma 14-558 and delta 14-604 from Upstate; Millipore), dithiothreitol (Sigma, D-5545), Adenosine-5′ triphosphate (InVitrogen, Cat#AS001A), native PIP3 (PI(3,4,5)P3, diC8, H^+, CELLSIGNALS, INC. Cat #907) DMSO (Sigma, 472301).
(§6) PI3Kinase Reaction Buffer is prepared by dilution the stock 1:4 with de-ionized water. DTT, PIP2 and Biotin-PIP3 were added to 1536 assay plate at a final concentration of 5 mM, […] on the day of use. Enzyme addition and compound pre-incubation are initiated by the addition of 1.25 ul of PI3K (at twice its final concentration) in the 1× reaction buffer to all wells using a BioRaptor. Plates are incubated at RT for 15 minutes. Reactions are initiated by addition of 1.25 ul of 2× substrate solution (PIP2 and ATP in 1× reaction buffer) using BioRaptor. Plates are incubated in humidified chamber at RT for one hour. Reactions are quenched by addition of 0.625 uL of stop solution to all wells using the BioRaptor. The quenched reactions are then processed to detect product formation by adding 0.625 uL of Detection Solution to all wells using the BioRaptor (Detection mix C, Detection Mix A, and Detection Mix B combined together in an 18:1:1 ratio prepared 2 hours prior to use). Following a one hour incubation in the dark, the HTRF signal is measured on the Envision plate reader set for 330 nm excitation and dual emission detection at 620 nM (Eu) and 665 nM (APC).
Background: Time-resolved FRET reads energy transfer from a long-lived donor to a nearby acceptor.

The target of a further assay is PI3Kalpha (Homo sapiens (Human), UniProt P42336). Kind of assay: HTRF PI3K biochemical assay, alpha isoform (selectivity versus PI3Kalpha). As to conditions: relative ratio (PI3K-alpha IC50 value/PI3K-delta IC50 value); form screened: Neutral.
PI3Kalpha, sequence (P42336 whole entry, canonical isoform): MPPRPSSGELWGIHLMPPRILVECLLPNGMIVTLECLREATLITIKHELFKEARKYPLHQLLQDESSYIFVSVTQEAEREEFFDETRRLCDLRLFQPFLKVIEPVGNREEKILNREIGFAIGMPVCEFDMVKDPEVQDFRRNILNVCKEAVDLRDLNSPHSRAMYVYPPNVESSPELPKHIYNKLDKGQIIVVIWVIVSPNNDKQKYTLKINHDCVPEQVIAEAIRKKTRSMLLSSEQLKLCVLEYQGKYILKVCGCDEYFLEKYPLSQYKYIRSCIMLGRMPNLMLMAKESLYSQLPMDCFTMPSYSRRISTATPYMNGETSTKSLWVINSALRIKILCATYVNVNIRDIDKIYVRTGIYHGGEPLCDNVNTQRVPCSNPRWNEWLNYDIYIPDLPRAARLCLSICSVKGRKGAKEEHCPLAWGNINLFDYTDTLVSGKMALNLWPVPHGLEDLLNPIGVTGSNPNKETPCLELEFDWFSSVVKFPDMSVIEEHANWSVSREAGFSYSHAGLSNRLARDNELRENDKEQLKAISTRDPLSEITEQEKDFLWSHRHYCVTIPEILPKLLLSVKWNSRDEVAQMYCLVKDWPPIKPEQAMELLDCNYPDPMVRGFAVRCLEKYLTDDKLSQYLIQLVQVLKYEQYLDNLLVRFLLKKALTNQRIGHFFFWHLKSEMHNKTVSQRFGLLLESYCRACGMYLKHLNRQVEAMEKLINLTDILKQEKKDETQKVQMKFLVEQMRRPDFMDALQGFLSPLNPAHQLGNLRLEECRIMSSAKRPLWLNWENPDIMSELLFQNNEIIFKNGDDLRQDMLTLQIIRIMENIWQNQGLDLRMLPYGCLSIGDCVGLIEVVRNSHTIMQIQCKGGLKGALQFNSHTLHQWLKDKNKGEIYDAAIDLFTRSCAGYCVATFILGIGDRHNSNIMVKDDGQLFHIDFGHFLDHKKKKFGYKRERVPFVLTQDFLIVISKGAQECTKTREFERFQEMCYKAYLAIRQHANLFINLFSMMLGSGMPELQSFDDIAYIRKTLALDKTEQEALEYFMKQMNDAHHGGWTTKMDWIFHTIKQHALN
PI3Kalpha, sequence (P27986 whole entry partner, canonical isoform): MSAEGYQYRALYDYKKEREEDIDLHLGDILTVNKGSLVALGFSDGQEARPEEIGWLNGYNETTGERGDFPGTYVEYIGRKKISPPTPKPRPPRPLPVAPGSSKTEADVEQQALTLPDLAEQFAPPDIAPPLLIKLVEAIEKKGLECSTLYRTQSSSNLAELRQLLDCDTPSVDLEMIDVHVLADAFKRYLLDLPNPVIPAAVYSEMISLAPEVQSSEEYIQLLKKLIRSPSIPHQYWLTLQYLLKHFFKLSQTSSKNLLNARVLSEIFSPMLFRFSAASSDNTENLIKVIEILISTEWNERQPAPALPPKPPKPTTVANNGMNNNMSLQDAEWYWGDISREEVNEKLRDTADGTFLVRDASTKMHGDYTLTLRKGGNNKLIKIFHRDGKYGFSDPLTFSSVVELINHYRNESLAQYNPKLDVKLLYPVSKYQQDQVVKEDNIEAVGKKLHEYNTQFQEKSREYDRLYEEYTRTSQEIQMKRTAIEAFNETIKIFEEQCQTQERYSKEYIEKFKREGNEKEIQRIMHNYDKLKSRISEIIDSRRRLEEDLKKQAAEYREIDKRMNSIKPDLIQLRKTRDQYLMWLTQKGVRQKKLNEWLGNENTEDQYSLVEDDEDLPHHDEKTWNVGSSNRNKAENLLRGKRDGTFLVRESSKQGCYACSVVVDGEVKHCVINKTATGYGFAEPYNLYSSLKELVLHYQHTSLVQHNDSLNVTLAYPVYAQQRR
From the text: as §1, §2, §3, §4, §5
as §6, with “[…]. […]” for “(APC).”

By IC50 is commonly meant the concentration that gives 50% inhibition.

PI3Kdelta, sequence (O00329 whole entry, canonical isoform): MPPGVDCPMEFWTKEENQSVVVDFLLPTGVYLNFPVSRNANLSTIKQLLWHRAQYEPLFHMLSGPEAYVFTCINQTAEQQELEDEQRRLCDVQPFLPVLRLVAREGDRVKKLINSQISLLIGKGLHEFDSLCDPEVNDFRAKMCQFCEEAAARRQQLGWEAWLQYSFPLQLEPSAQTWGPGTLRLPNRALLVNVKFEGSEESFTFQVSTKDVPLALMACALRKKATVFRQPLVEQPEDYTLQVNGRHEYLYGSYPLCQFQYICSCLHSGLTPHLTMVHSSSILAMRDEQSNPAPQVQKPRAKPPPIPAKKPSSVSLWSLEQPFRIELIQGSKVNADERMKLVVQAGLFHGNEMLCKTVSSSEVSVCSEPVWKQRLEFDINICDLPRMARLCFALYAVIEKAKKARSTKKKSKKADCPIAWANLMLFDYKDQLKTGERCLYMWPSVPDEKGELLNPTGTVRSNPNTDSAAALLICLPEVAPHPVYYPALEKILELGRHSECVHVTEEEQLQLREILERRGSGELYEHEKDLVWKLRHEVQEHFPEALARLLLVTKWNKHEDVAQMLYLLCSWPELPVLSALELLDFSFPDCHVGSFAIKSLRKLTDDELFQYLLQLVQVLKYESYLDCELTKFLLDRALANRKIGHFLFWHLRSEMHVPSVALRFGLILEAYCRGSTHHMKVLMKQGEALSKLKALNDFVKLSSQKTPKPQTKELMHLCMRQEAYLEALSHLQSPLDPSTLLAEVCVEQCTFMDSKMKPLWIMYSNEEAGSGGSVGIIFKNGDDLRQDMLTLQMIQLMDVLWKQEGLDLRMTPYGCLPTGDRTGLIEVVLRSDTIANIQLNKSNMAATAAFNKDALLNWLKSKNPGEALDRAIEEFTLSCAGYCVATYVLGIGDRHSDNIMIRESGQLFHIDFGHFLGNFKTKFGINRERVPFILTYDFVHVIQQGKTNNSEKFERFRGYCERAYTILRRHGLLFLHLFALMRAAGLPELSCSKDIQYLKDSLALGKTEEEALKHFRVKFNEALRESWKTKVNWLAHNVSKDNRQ
PI3Kdelta, sequence (P27986 whole entry partner, canonical isoform): as the sequence (P27986 whole entry partner, canonical isoform) above

In turn, `CCn1c(-c2cnc(C)nc2)nc2c(N[C@@H](CC(N)=O)C(=O)N3C[C@@H](C)O[C@@H](C)C3)ncnc21` [Compound 2-41, (3S)-4-[(cis)-2,6-dimethylmorpholin-4-yl]-3-{[9-ethyl-8-(2-methylpyrimidin-5-yl)-9H-purin-6-yl]amino}-4-oxobutanamide] had an IC50 at PI3Kdelta of 110 nM. Further, the “Selectivity versus PI3Kalpha” value on PI3Kalpha is reported as >10.
The corresponding values for `CCC(Nc1ncnc2c1nc(-c1cnc(C)nc1)n2CC)C(=O)N1CCOCC1` (single isomer, unassigned) [Compound 1-8, (R or S)-9-ethyl-8-(2-methylpyrimidin-5-yl)-N-[1-(morpholin-4-ylcarbonyl)propyl]-9H-purin-6-amine] are 6.5 nM and >10.
On to `CCn1c(C(F)F)nc2c(N[C@@H](C)C(=O)N3C[C@@H](C)O[C@@H](C)C3)ncnc21` [Compound 2-5, 8-(difluoromethyl)-N-{(1S)-2-[(cis)-2,6-dimethylmorpholin-4-yl]-1-methyl-2-oxoethyl}-9-ethyl-9H-purin-6-amine], for which, on PI3Kdelta, the IC50 turned out to be 230 nM. In addition, on PI3Kalpha, the “Selectivity versus PI3Kalpha” value is recorded as >10.
Regarding `CCn1c(-c2cnc(C)nc2)nc2c(N[C@@H](C)C(=O)N3C[C@@H](C)O[C@@H](C)C3)ncnc21` [Compound 2-39, N-{(1S)-2-[(cis)-2,6-dimethylmorpholin-4-yl]-1-methyl-2-oxoethyl}-9-ethyl-8-(2-methylpyrimidin-5-yl)-9H-purin-6-amine], it took 12 nM to reach half-maximal inhibition on PI3Kdelta (IC50). The “Selectivity versus PI3Kalpha” value on PI3Kalpha is on record as >10.
As for `CC[C@H](Nc1ncnc2c1nc(-c1cnc(C)nc1)n2CC)C(=O)N1CCC(C)C1` (mixture of isomers) [Compound 2-18, 9-ethyl-8-(2-methylpyrimidin-5-yl)-N-{(1S)-1-[((S and R)-3-methylpyrrolidin-1-yl)carbonyl]propyl}-9H-purin-6-amine], on PI3Kdelta, the IC50 is 31 nM. The “Selectivity versus PI3Kalpha” value on PI3Kalpha was >10.
As to `CC[C@H](Nc1ncnc2c1nc(-c1cnc(C)nc1)n2CC)C(=O)N1CCSC1C` (mixture of isomers) [Compound 2-24, 9-ethyl-8-(2-methylpyrimidin-5-yl)-N-{(1S)-1-[((S and R)-2-methyl-1,3-thiazolidin-3-yl)carbonyl]propyl}-9H-purin-6-amine], it took 27 nM to reach half-maximal inhibition on PI3Kdelta (IC50). For the same molecule, the “Selectivity versus PI3Kalpha” value on PI3Kalpha is >10.
The corresponding values for `CC[C@H](Nc1ncnc2c1nc(-c1cnc(C)nc1)n2CC)C(=O)N1C[C@@H](C)O[C@@H](C)C1` [Compound 2-6, N-[(1S)-1-{[(cis)-2,6-dimethylmorpholin-4-yl]carbonyl}propyl]-9-ethyl-8-(2-methylpyrimidin-5-yl)-9H-purin-6-amine] are 6.1 nM and >10.
Consider `CC[C@H](Nc1ncnc2c1nc(C(F)F)n2CC)C(=O)N1C[C@@H](C)O[C@@H](C)C1` [Compound 2-4, 8-(difluoromethyl)-N-[(1S)-1-{[(cis)-2,6-dimethylmorpholin-4-yl]carbonyl}propyl]-9-ethyl-9H-purin-6-amine], for which, at PI3Kdelta, half-maximal inhibition (IC50) was put at 99 nM. Besides, the “Selectivity versus PI3Kalpha” value at PI3Kalpha is reported as >10.
The corresponding values for `CCn1c(-c2cnc(C)nc2)nc2c(NC3(C(=O)N4CCC(F)(F)CC4)CC3)ncnc21` [Compound 2-3, N-{1-[(4,4-difluoropiperidin-1-yl)carbonyl]cyclopropyl}-9-ethyl-8-(2-methylpyrimidin-5-yl)-9H-purin-6-amine] are 590 nM and >10.
Take `CC[C@H](Nc1ncnc2c1nc(-c1cnc(C)nc1)n2CC)C(=O)N1CCC(OCCOC)CC1` [Compound 2-10, 9-ethyl-N-[(1S)-1-{[4-(2-methoxyethoxy)piperidin-1-yl]carbonyl}propyl]-8-(2-methylpyrimidin-5-yl)-9H-purin-6-amine]: the IC50 at PI3Kdelta was determined as 62 nM. Also, the “Selectivity versus PI3Kalpha” value at PI3Kalpha was >10.
The corresponding values for `CCn1c(-c2cnc(C)nc2)nc2c(N[C@@H](CC(C)C)C(=O)N3C[C@@H](C)O[C@@H](C)C3)ncnc21` [Compound 2-44, N-[(1S)-1-{[(cis)-2,6-dimethylmorpholin-4-yl]carbonyl}-3-methylbutyl]-9-ethyl-8-(2-methylpyrimidin-5-yl)-9H-purin-6-amine] are 140 nM and >10.
The corresponding values for `CCn1c(-c2cnc(C)nc2)nc2c(N[C@H](CC(=O)N3C[C@@H](C)O[C@@H](C)C3)C(C)C)ncnc21` [Compound 2-58, N-[(1R)-3-[(cis)-2,6-dimethylmorpholin-4-yl]-1-(1-methylethyl)-3-oxopropyl]-9-ethyl-8-(2-methylpyrimidin-5-yl)-9H-purin-6-amine] are 290 nM and >10.
The corresponding values for `CCn1c(-c2cnc(C)nc2)nc2c(NCC3(C(=O)N4CCCC4)CC3)ncnc21` [Compound 2-61, 9-ethyl-8-(2-methylpyrimidin-5-yl)-N-{[1-(pyrrolidin-1-ylcarbonyl)cyclopropyl]methyl}-9H-purin-6-amine] are 93 nM and >10.
With `CCn1c(-c2cnc(C)nc2)nc2c(NC[C@@H](C)C(=O)N3CCCC3)ncnc21` [Compound 2-60, 9-ethyl-N-[(2R)-2-methyl-3-oxo-3-pyrrolidin-1-ylpropyl]-8-(2-methylpyrimidin-5-yl)-9H-purin-6-amine], at PI3Kdelta, the IC50 is 29 nM. For the same molecule, the “Selectivity versus PI3Kalpha” value at PI3Kalpha is listed as >10.
Regarding `CC[C@H](Nc1ncnc2c1nc(-c1cnc(C)nc1)n2CC)C(=O)N1CCOC[C@@H]1C` [Compound 2-26, 9-ethyl-N-[(1S)-1-{[(3S)-3-methylmorpholin-4-yl]carbonyl}propyl]-8-(2-methylpyrimidin-5-yl)-9H-purin-6-amine], the IC50 against PI3Kdelta was 32 nM. The “Selectivity versus PI3Kalpha” value on PI3Kalpha was >10.
The corresponding values for `CCn1ncc(-c2nc3c(NC(C)C(=O)N4CCOCC4)ncnc3n2C)c1C` (single isomer, unassigned) [Compound 1-7, (R or S)-8-(1-ethyl-5-methyl-1H-pyrazol-4-yl)-9-methyl-N-(1-methyl-2-morpholin-4-yl-2-oxoethyl)-9H-purin-6-amine] are 24 nM and >10.
The corresponding values for `CCC(Nc1ncnc2c1nc(-c1cnn(CC)c1C)n2C)C(=O)N1CCC(F)(F)CC1` (racemic) [Compound 1-5, (R and S)-N-{1-[(4,4-difluoropiperidin-1-yl)carbonyl]propyl}-8-(1-ethyl-5-methyl-1H-pyrazol-4-yl)-9-methyl-9H-purin-6-amine] are 9 nM and >10.
